Patent publication US11993640B2, “Treating inflammatory lung disease” (United States Government as represented by the Department …, priority 2019, dated 2024)
Non-standard residues stand in square brackets, D forms with d. Residues, ends and D or L forms follow the SMILES beside them. *: point of attachment. Phe(F5) = N[C@@H](Cc1c(F)c(F)c(F)c(F)c1F)C(=O)O; hArg = N=C(N)NCCCC[C@H](N)C(=O)O; 12Ado = NCCCCCCCCCCCC(=O)O; Nle = CCCC[C@H](N)C(=O)O; Orn = NCCC[C@H](N)C(=O)O; Abu = CC[C@H](N)C(=O)O; PhAc = O=C(Cc1ccccc1)*

Key:
SK-OV-3 cells = test: In vitro cell viability, ovarian cancer SK-OV-3; assay type: cell-based, human; details: * at concentration of 2 μM for 72 h; Table 3B
Procedure: (§1) The inhibitory effects of the various synthesized GHRH antagonists were tested in cell proliferation assays in various human cancer cell lines including stomach cancer (KATOIII, N87), colon cancer (HT-29), urothelial cancer (J82, RT4), pancreatic cancer (PANC-1, CFPAC-1), prostatic cancer (PC3), breast cancer (MX-1, HCC1806), ovarian cancer (SK-OV-3, OVCAR-3) and lung cancer (HCC827, H460).
(§2) Cell culture. Human cancer cell lines including pancreatic (PANC-1 and CFPAC-1), lung (HCC827 and H460), stomach (NCI-N87 and KATOIII), urothelial (J82, RT4), prostatic (PC3), breast (MX-1 and HCC 1806), colorectal (HT-29), and ovarian (SK-OV-3 and OVCAR-3) were obtained from the American Type Culture Collection (ATCC) and cultured at 37° C. in a humidified 95% air/5% CO2 atmosphere in the medium recommended by ATCC.
(§3) In vitro cell viability. Cell viability was analyzed as follows: cancer cells including pancreatic (PANC-1 and CFPAC-1), lung (HCC827 and H460), stomach (NCI-N87 and KATOIII), urothelial (J82, RT4), prostatic (PC3) and breast (MX-1 and HCC 1806), colorectal (HT-29) and ovarian (SK-OV-3 and OVCAR-3) were grown on 96 well plates to ˜60% confluence, the cells were starved for 24 h in culture medium containing 0.5% FBS. […] Cell viability was measured using CellTiter 96 aqueous one solution kit (Promega). […]

PC3 xenograft = test: Xenograft tumor growth in nude mice, prostate cancer PC3; assay type: in vivo; details: Panel N, 8 weeks, 5 μg/day s.c.
Procedure: The peptides' activity was compared with GHRH antagonist MIA-602. All statistical analyzses were performed from comparing GHRA antagonists to non-treated tumor (control).
Peptides and chemicals. GHRH antagonists MIA-602 and AVR-GHRH antagonists (see Table 2 above) were synthesized by solid phase methods and purified by HPLC. The peptides were dissolved in DMSO and further diluted in 10% 1, 2-propanediol. The final concentration of peptides was 50 µg/ml in 10% 1, 2-propanediol containing 0.1% of DMSO.
as §2, with “(NCI-N87), prostate” for “(NCI-N87 and KATOIII), urothelial (J82, RT4), prostatic”, “brest” for “breast”, “HCC-1806),” for “HCC 1806),”
Xenograft models of human cancers in nude mice. Female athymic (NCr nu/nu) nude mice, 5-to 6-weeks-old, obtained from the Envigo labs (Tampa, FL), were housed in laminar airflow cabinets under pathogen-free conditions with a 12-h light/12-h dark schedule, and were fed autoclaved standard chow and water. To generate mice with xenografted tumors, tumor xenografts were initiated by subcutaneous (s.c.) injection of […] human cancer cells into female nude mice. After about 4 weeks the resulting tumors were dissected and collected after removing necrosis tissues. The tumors were then cut into particles with size of ˜3 mm3 and transplanted s.c. by trocar needle into experimental animals. When tumors grew to the size of 50-60 mm3 (by volume), mice were randomized into groups and treated daily for 4-8 weeks by subcutaneous administration of 5 μg of GHRH antagonists MIA-602 or AVR-compounds (2-10 μg as indicated), or vehicle solutions (0.1% DMSO in 10% 1, 2-propanediol) respectively. Tumor sizes were measured weekly.
Statistical analysis. One-way ANOVA followed by Bonferroni comparison were performed. Data are expressed as Mean±SEM. […]

HT-29 cells = test: In vitro cell viability, colon cancer HT-29; assay type: cell-based, human; details: 5 μM, 72 h; Table 3B
Procedure: as §1, §2, §3

CCCC[C@H](NC(=O)[C@@H](NC(=O)[C@H](CC(=O)O)NC(=O)[C@H](CCC(N)=O)NC(=O)[C@H](CC(C)C)NC(=O)[C@H](CC(C)C)NC(=O)[C@H](CCCN)NC(=O)[C@H](Cc1c[nH]cn1)NC(=O)[C@H](C)NC(=O)[C@H](CO)NC(=O)[C@H](CC(C)C)NC(=O)[C@H](CCC(N)=O)NC(=O)[C@H](CC)NC(=O)[C@H](CC(C)C)NC(=O)[C@@H](NC(=O)[C@H](CCCN)NC(=O)[C@H](Cc1c[nH]cn1)NC(=O)[C@H](Cc1ccc(OC)cc1)NC(=O)[C@H](CCCCNC(=N)N)NC(=O)[C@H](C)NC(=O)[C@@H](NC(=O)[C@H](Cc1c(F)c(F)c(F)c(F)c1F)NC(=O)[C@@H](NC(=O)[C@H](C)NC(=O)[C@H](CC(=O)O)NC(=O)[C@@H](CCCNC(=N)N)NC(=O)[C@H](Cc1ccc(O)cc1)NC(=O)CCCCCCCCCCCNC(=O)Cc1ccccc1)[C@@H](C)CC)[C@@H](C)O)C(C)C)[C@@H](C)CC)C(=O)N[C@H](CCCNC(=N)N)C(=O)N[C@@H](CCCCNC(=N)N)C(N)=O [MIA-602, PhAC-Ada, Tyr D-Arg, Asp, Ala, Ile, 5FPhe, Thr, Ala, Har, Tyr(Me), His, Orn, Val, Leu, Abu, Gin, Leu, Ser, Ala, His, Orn, Leu, Leu, Gin, Asp, Ile, Nle, D-Arg, Har NH2, reference compound] ({PhAc-12Ado}-Y[dR]DAI[Phe(F5)]TA[hArg]Y(Me)H[Orn]VL[Abu]QLSAH[Orn]LLQDI[Nle][dR][hArg]-NH2)
In vitro relative inhibitory potency in comparison to MIA-602, SKOV-3 (SK-OV-3 cells): 1
Tumor Growth % (PC3 xenograft): 450.9%
In vitro relative inhibitory potency in comparison to MIA-602, HT-29 (HT-29 cells): 1
